Assay results reported in patent US20060067938A1, “Methods for the treatment of osteoarthritis and compositions thereof” (priority 2001, published 2006).
Several values for one entry are separate records, joined by “and”; a condition that tells them apart may be missing. Equal entries are not always repeated.

Key:
Aggrecanase-1 mRNA = assay: Real time PCR, fold induction of Aggrecanase-1 mRNA in human articular chondrocytes; format: cell-based; settings: chondrocytes from one OA patient
Method: (§1) Chondrocytes were isolated from 2 normal and 2 OA patents. Cells alone or those over expressing the dominant negative form of Akt (retroviral mediated gene transfer) were treated with IL-1 beta, OSM or IL-1 beta+OSM with and without the PI3K inhibitor LY294002. RNA was isolated and the levels of Agg-1, Col-3 mRNA were measured by real time PCR. All treatments in four different donors were done in duplicate.
(§2) Total RNA was isolated from pooled duplicate 96-well plates using Qiagen RNeasy 96 kit (Qiagen, Valencia, Calif.) according to the manufacturer's instructions. The optional on-column Dnase I digestion was employed to eliminate contaminating genomic DNA. First strand cDNA was synthesized using random primers with the High-Capacity cDNA Archive kit (PE Applied Biosystems, Foster City, Calif.) in a 100 ul reaction volume.
(§3) Real time PCR was performed in a 384-well format on the ABI Prism 7900HT Sequence Detection System (Applied Biosystems, Foster City, Calif.) using SYBR Green PCR Master Mix (Applied Biosystems, Foster City, Calif.). The 20 ul reaction contained 5 ul cDNA, 200 nM forward and reverse primers, and SYBR Green PCR Master Mix. The default cycling program (95° C. for 10′ and 40 cycles of 95° C., 15″, 60° C., 1′) was followed by a slow ramping step by which a melting curve is generated to confirm the specificity of the PCR product and the absence of primer dimers.
(§4) Amplification of GAPDH was used to standardize the amount of sample cDNA added to the reaction. Changes in gene expression were calculated using the Comparative Ct method which makes use of a calibrator sample. This is the sample with which all others will be compared and whose value is therefore set to 1. All other values are therefore expressed relative to the calibrator. The retroviral vector containing no cDNA insert represents the calibrator sample. The amount of target, relative to the calibrator is calculated according to the formula 2^□□CT as outlined in ABI User Bulletin #2 (PE Applied Biosystems, Foster City, Calif.).

[1] = test system: Aggrecanase-1 (AGG-1) mRNA; assay: RT-PCR of AGG-1 mRNA in PDGF stimulated primary human chondrocytes; format: cell-based; settings: primary human chondrocytes (non-OA joints)
Method: (§5) cDNA from Isolated Normal and Osteoarthritic Cartilage: A quantity of 1 μg total Isolated Normal or Osteoarthritic Cartilage RNA is treated with DNase (Ambion, Austin, Tex.) in DNase buffer (Ambion, Austin, Tex. in a quantity sufficient to make 10 μl total reaction volume and heated at 37° C. for 30 minutes. The DNase enzyme is inactivated by adding EDTA and heating at 75° C. for 5 min. cDNA is then synthesized from the reaction mixture above using Oligo dT12-18 with the Superscript Preamplification System (Life Technologies, Rockville, Md.). The final reaction volume is then adjusted to 300 μl. Cyclophilin RT-PCR is performed on each sample to allow comparative normalized PI3K, PKB, AGG-1, or COL-3 gene quantitation. Reverse transcriptase polymerase chain reaction (RT-PCR) for cyclophilin is first performed using 3 μl template utilizing the Expand Long PCR System (Roche Biochemicals, Indianapolis, Ind.). Cyclophilin RT-PCR is performed on each sample for 28 cycles to prevent saturation of the PCR products, whereas 35-40 cycles is necessary to detect less abundant genes. Loading dye is added to the 50 μl RT-PCR reaction mix, 10 μl of the dyed RT-PCR reaction mix is loaded onto a 4-20% TBE gradient gel (BioRad, Hercules, Calif.)) and separated at 200V for 45 min. The gel is stained in 1×TBE (Sigma, St. Louis, Mo.) solution containing SYBR green (1:10,000) (Molecular Probes, Eugene, Oreg.) for 1 hour and then scanned on the Storm 860—Blue Fluorescence/Chemifluorescence scanner (Molecular Dynamics, Division of Amersham Pharmacia, Piscataway, N.J.). Individual bands are quantitated using ImageQuant software (Molecular Dynamics, Division of Amersham Pharmacia, Piscataway, N.J.). The fluorescence value determined for each PCR band representing a particular gene is normalized against the fluorescence value for the cyclophilin band in the same donor sample.
(§6) Induction or Inhibition of PI3KI3K/PKB In Cultured Chondrocytes: In all studies described below chondrocytes were cultured in DMEM medium with or without 10% Fetal Bovine Serum (Invitrogen Life Technologies, Carlsbad, Calif.). […]

[2] = test system: Collagenase-3 (COL-3) mRNA; assay: RT-PCR of COL-3 mRNA in PDGF stimulated primary human chondrocytes; format: cell-based; settings: primary human chondrocytes (non-OA joints)
Method: as §5, §6

[3] = test system: Collagenase-3 (MMP-13) mRNA; assay: Real time PCR, fold induction of Collagenase-3 (MMP-13) mRNA in human articular chondrocytes; format: cell-based; settings: chondrocytes from one OA patient
Method: as §1, §2, §3, §4

[4] = test system: Collagenase-3 protein secretion; assay: ELISA for COL-3 protein secretion in chondrocyte supernatants; format: cell-based, human; settings: for Collagenase-3 protein in supernatant: 24 hr, control 2491 ± 147
Method: ELISA for COL-3—Chondrocyte culture cells are incubated in serum free media (DMEM) overnight, and then incubated for 1 hour in fresh serum free media without or with (50 ng/ml) PDGF-BB (Invitrogen-Life Technologies, Carlsbad, Calif.) is added to each well and incubated for an additional 24 hours. Cell culture supernatants are collected and the levels of COL-3 protein are determined for each treatment using Amersham (Piscataway, N.J.) human collagenase-3 ELISA. FIG. 5 depicts the ELISA of COL-3 protein secretion and inhibition by LY249002. Chondrocyte cells isolated as described above are incubated in serum free media overnight, and then incubated for 1 hour in fresh serum free medium (DMEM) with or without LY294002. Then 50 ng/ml PDGF-BB (Sigma, St. Louis, Mo.) is added to each well and incubated for an additional 24 hours. Chondrocyte cell culture supernatants are collected and the levels of COL-3 protein are determined for each treatment using the commercially available Amersham (Piscataway, N.J.) human collagenase-3 ELISA based assay.

[5] = test system: PI3K/PKB pathway (phospho-PKB); assay: Western blot of chondrocyte lysates probed with anti-phospho-PKB (activation of PI3K/PKB pathway by PDGF); format: cell-based; settings: primary human chondrocytes (non-OA joints), two samples
Method: (§7) Induction or Inhibition of PI3KI3K/PKB In Cultured Chondrocytes: In all studies described below chondrocytes were cultured in DMEM medium with or without 10% Fetal Bovine Serum (Invitrogen Life Technologies, Carlsbad, Calif.). Cultured chondrocyte cells are incubated overnight in serum free medium (DMEM) and then treated, as one of the following types of samples, 1) control samples, by incubating the cultures for 24 hour in serum free medium (DMEM) 2) induced samples, by incubating the cultures for 24 hours in serum free medium containing the PI3K/PKB inducer PDGF-BB (Invitrogen—Life Technologies Carlsbad, Calif.) or 3) PI3K/PKB inhibited samples, by pre-incubating the samples for 1 hour with the PI3K/PKB inhibitor LY294002 (Sigma, St. Louis, Mo.) and then incubating the cultures for 24 hours in serum free medium (DMEM) containing the PDGF-BB. FIG. 3 depicts activation of PI3K/PKB expression by PDGF in primary human chondrocytes. FIG. 4 depicts LY249002 (2-(4-morpholinyl)-8-phenyl-4H-1-benzopyran-4-one) inhibition of PDGF activated PI3K/PKB expression in primary human chondrocytes.
Western Blotting—Cells are incubated in serum free medium (DMEM) overnight, and then incubated for 10 minutes in fresh serum free media containing PDGF-BB (50 ng/ml)+/−LY294002 (20 μM). Cells are washed in ice cold PBS, scraped and sonicated in ice cold lysis buffer containing 50 mM Tris pH 7.4, 1% NP-40, 0.25% Na deoxycholate, 150 mM NaCl, 1 mM EGTA, 1 mM PMSF, aprotinin, leupeptin, and pepstatin (all at 1 μg/ml 1 mM Na vanadate, 1 mM NaF, and 1 μM microcystin) (Sigma, St Louis, Mo.). The protein concentration of the lysate is determined using the micro bicinchoninic acid assay (Pierce, Rockford, Ill.) and 20 μg lysate is run per lane for phospho-PKB and phospho-forkhead and 5 μg for anti-His antibody [rabbit anti-phospho-PKB-Ser473 NEB, rabbit anti-phospho-FKHRL1-Thr32 NEB, mouse anti penta-His (Qiagen, Valencia, Calif.)]. Peroxidase labeled secondary antibodies are purchased from Jackson Laboratories (Bar, Harbor, Me.). Blots are visualized with ECL reagent (Amersham, Piscataway, N.J.). […]

[6] = test system: PKB pathway (phospho-FKHRL1); assay: Western blot of chondrocyte lysates probed with anti-phospho-FKHRL1; format: cell-based; settings: PDGF 50 ng/ml alone; primary human chondrocytes (non-OA joints); two samples
Method: as §7, with “FIG. 3 depicts activation of PI3K/PKB expression by PDGF in primary human chondrocytes. FIG. 4 depicts LY249002 (2-(4-morpholinyl)-8-phenyl-4H-1-benzopyran-4-one) inhibition of PDGF activated PI3K/PKB expression in primary human chondrocytes.” left out
Western Blotting—Cells are incubated in serum free medium (DMEM) overnight, and then incubated for 10 minutes in fresh serum free media containing PDGF-BB (50 ng/ml)+/−LY294002 (20 μM). […] The protein concentration of the lysate is determined using the micro bicinchoninic acid assay (Pierce, Rockford, Ill.) and 20 μg lysate is run per lane for phospho-PKB and phospho-forkhead and 5 μg for anti-His antibody [rabbit anti-phospho-PKB-Ser473 NEB, rabbit anti-phospho-FKHRL1-Thr32 NEB, mouse anti penta-His (Qiagen, Valencia, Calif.)]. […]

[7] = inhibitor + IL-1 + Oncostatin M
[8] = inhibitor + IL-1 + Oncostatin M, listed as LY 294002
[9] = PDGF 50 ng/ml + LY294002 20 μM, listed as LY2490002

For `O=c1cc(N2CCOCC2)oc2c(-c3ccccc3)cccc12` [LY294002, 2-(4-morpholinyl)-8-phenyl-4H-1-benzopyran-4-one], the “Fold Induction of mRNA, Aggrecanase-1” value (Aggrecanase-1 mRNA; [7]) was “blocked”, the “Fold Induction of mRNA, Aggrecanase-1” value (Aggrecanase-1 mRNA; [8]) was 49 fold and the “Fold Induction of mRNA, Aggrecanase-1” value (Aggrecanase-1 mRNA; inhibitor + IL-1) was 22 fold. For the same molecule, the “Fold Induction of mRNA, Aggrecanase-1” value (Aggrecanase-1 mRNA; inhibitor + Oncostatin M) was 45 fold, the “Fold Induction of mRNA, Aggrecanase-1” value (Aggrecanase-1 mRNA; inhibitor + PDGF) was 2 fold and the “Aggrecanase-1 gene expression (PCR amplicon gel signal)” value (shortened to “Aggrecanase-1 gene expression”) ([1]; PDGF 50 ng/ml + LY294002 20 μM) was 0. For the same molecule, the “Aggrecanase-1 gene expression” value [1, 9] was “inhibits the downstream production of mRNA for AGG-1 and COL-3”, the “Collagenase-3 gene expression (PCR amplicon gel signal)” value (shortened to “Collagenase-3 gene expression”) ([2]; PDGF 50 ng/ml + LY294002 20 μM) was 302 and the “Collagenase-3 gene expression” value [2, 9] was “inhibits the downstream production of mRNA for AGG-1 and COL-3”. For the same molecule, the “Fold Induction of mRNA, Collagenase-3” value [3, 7] was “blocked”, the “Fold Induction of mRNA, Collagenase-3” value [3, 8] was 19 fold and the “Fold Induction of mRNA, Collagenase-3” value ([3]; inhibitor + IL-1) was 5 fold. The “Fold Induction of mRNA, Collagenase-3” value ([3]; inhibitor + Oncostatin M) was 10 fold, the “Fold Induction of mRNA, Collagenase-3” value ([3]; inhibitor + PDGF) was 2 fold and the “Collagenase-3 protein in supernatant” value ([4]; 1 μM LY294002 in the presence of PDGF 50 ng/ml) was 2374 ± 58 pg/mL. For the same molecule, the “Collagenase-3 protein in supernatant” value ([4]; 5 μM LY294002 in the presence of PDGF 50 ng/ml) was 1555 ± 104 pg/mL, the “Collagenase-3 protein in supernatant” value ([4]; 20 μM LY294002 in the presence of PDGF 50 ng/ml) was 342 ± 8 pg/mL and the “Secretion of COL-3 protein (in words)” value ([4]; PDGF stimulated primary human chondrocytes) was “inhibits secretion of COL-3 protein”. For the same molecule, the “Anti Phospho-PKB western blot signal” value ([5]; PDGF 50 ng/ml + LY294002 20 μM) was 4706 and 3408 and the “Anti Phospho-PKB western blot signal” value [5, 9] was “decreases PDGF induced activation of PKB”.
Interleukin-1 [IL-1] was tested, and the “Fold Induction of mRNA, Aggrecanase-1” value (Aggrecanase-1 mRNA; inducer alone, untreated 2) was 180 fold and the “Fold Induction of mRNA, Collagenase-3” value ([3]; inducer alone, untreated 1) was 150 fold.
In the case of oncostatin M, the “Fold Induction of mRNA, Aggrecanase-1” value (Aggrecanase-1 mRNA; inducer alone, untreated 2) is reported as 221 fold and the “Fold Induction of mRNA, Collagenase-3” value ([3]; inducer alone, untreated 1) is reported as 63 fold.
With platelet-derived growth factor [PDGF] the “Fold Induction of mRNA, Aggrecanase-1” value (Aggrecanase-1 mRNA; inducer alone, untreated 2) was 10 fold, the “Aggrecanase-1 gene expression” value ([1]; PDGF 50 ng/ml alone) was 418 and the “Collagenase-3 gene expression” value ([2]; PDGF 50 ng/ml alone) was 1242. For the same molecule, the “Fold Induction of mRNA, Collagenase-3” value ([3]; inducer alone, untreated 1) was 36 fold, the “Anti Phospho-PKB western blot signal” value ([5]; PDGF 50 ng/ml alone) was 17940 and 22369 and the “Anti-Phospho-FKHRL1 western blot signal” value [6] was 15838 and 16507.
